Test results published in US20220280614A1 (CASE WESTERN RESERVE UNIVERSITY, priority 2019, published 2022).

Test system: male Sprague-Dawley rats (ca. 300 g) rendered diabetic by streptozotocin
Test: Biological activity and pharmacodynamics (blood glucose over time) after subcutaneous injection in diabetic rats
Assay type: in vivo, rat
Settings: premixed clear solution of SCI-A and SCI-B, unbuffered, pH 4.0, FIGS. 8-10
Procedure: FIG. 7 is a graph showing blood glucose levels over time for diabetic rats (time 0 blood glucose of 375±20 mg/dl) injected subcutaneously with indicated analogue/300 g body weight.
FIG. 8 is a graph showing blood glucose levels over time for diabetic rats (time 0 blood glucose of 350-400 [±20 mg/dl]) injected subcutaneously with 1 unit of the indicated analog/300 g body weight. ( ? ) diluent control; (●) an SCI-A (SEQ ID NO: 5); (●) an example of an SCI-B (SEQ ID NO: 6) as formulated at neutral pH; and (♦) equimolar premixed clear solution of this SCI-A and this specific SCI-B as formulated in soluble form in an unbuffered solution at pH 4.0. Respective doses: 20 μg of each protein per 300 gram rat (singly); 20 μg and 20 μg in the case of the premixed solution to a total [SCI-A+SCI-B] combined dose of 40 μg.
FIG. 9 is a graph showing blood glucose levels over time for diabetic rats (time 0 blood glucose of 400±20 mg/dl) injected subcutaneously with indicated analogue/300 g body weight. […] Respective doses: 0.75 units SCI-A, 0.25 units SCI-B; and premixture of 0.75 units SCI-A and 0.25 units SCI-B.
FIG. 10 is a graph showing blood glucose levels over time for diabetic rats (time 0 blood glucose of 385±20 mg/dl) injected subcutaneously with indicated analogue/300 g body weight. […] Respective doses: 0.75 units SCI-A, 0.25 units SCI-B; and premixture of 0.75 units SCI-A and 0.25 units SCI-B.
Biological activity and pharmacodynamics were tested in male Sprague-Dawley rats (ca. 300 g) rendered diabetic by streptozotocin (FIG. 7).
Each of the three SCI-B analogues contained a six-residue C domain and an A-domain substitution known in the art to enhance stability and receptor-binding affinity (HisA8). The first SCI-B (SEQ ID NO: 6; FIG. 8) contained C domain sequence EEGPRR (positions 31-36). This analogue also contained insulin-moiety substitutions GluA14 and GluB29. The second example of an SCI-B (SEQ ID NO: 7; FIG. 9) contained C domain sequence EAAAAA (positions 31-36) and insulin-moiety substitutions GluA14, AspB28 and ProB29. […]

| Substance | effect of premixed SCI-A (SEQ ID NO: 5) on the rapid initial phase of insulin action of the SCI-B component |
| --- | --- |
| SEQ ID NO: 8: single-chain insulin analogue SCI-B, C domain EAAARA, substitutions GluA14, AspB28 and ProB29 (FVNQHLCGSHLVEALYLVCGERGFFYTDPTEAAARAGIVEQCCTSICSLEQLENYCN) | did not blunt or prevent the premixed SCI-B component from directing a rapid initial phase of insulin action |
| SEQ ID NO: 7: single-chain insulin analogue SCI-B, C domain EAAAAA, substitutions GluA14, AspB28 and ProB29 (FVNQHLCGSHLVEALYLVCGERGFFYTDPTEAAAAAGIVEQCCTSICSLEQLENYCN) | did not blunt or prevent the premixed SCI-B component from directing a rapid initial phase of insulin action |
| SEQ ID NO: 6: single-chain insulin analogue SCI-B, C domain EEGPRR, substitutions GluA14 and GluB29; rapid-acting component (FVNQHLCGSHLVEALYLVCGERGFFYTPETEEGPRRGIVEQCCTSICSLEQLENYCN) | did not blunt or prevent the premixed SCI-B component from directing a rapid initial phase of insulin action |
